In article PMC10865806, “Structural insights into the molecular mechanism of high-level ceftazidime–avibactam resistance conferred by CMY-185” (mBio, 2024):

Tests used:
Type in all cases: biochemical, Escherichia coli
CMY-2 variant N346Y [1] = target: T1, CMY-2 variant N346Y (Klebsiella pneumoniae, UniProt Q48434, N366Y); test: Competitive inhibition of cephalothin hydrolysis and avibactam inhibition kinetics; settings: for Ki: reporter substrate cephalothin 100 µM, Dixon plot, read-out: Ki app
T1 construct: all CMY-2 variant genes encoding the mature enzyme without a signal peptide were cloned into the protein expression plasmid vector pET-30b; made in house; host or cells: E. coli BL21 (DE3), pET-30b
Source text: (§1) We tested the enzymes, CMY-2, two single mutants V211S (CMY-42) and N346Y, three double mutants A114E_N346Y, Q120K_N346Y, and V211S_N346Y, and the quadruplet mutant CMY-185 to elucidate the impact on the kinetic properties resulting from the four amino acid substitutions present in CMY-185 compared with CMY-2 ([8]). The steady-state kinetic parameters kcat and Km (or Ki app) for nitrocefin, cephalothin, ceftazidime, and cefiderocol and the inhibition parameters Ki app, k2/K, k−2, and koff for avibactam are summarized in Table 1. During the hydrolysis of nitrocefin, we observed the reduction of the initial velocity at concentrations above 50 µM particularly for the CMY-2 variants harboring the N346Y substitution. As this could have represented substrate inhibition, we then determined the kinetics parameters for nitrocefin using the Haldane equation ([16]). […] In addition, during the hydrolysis of cefiderocol by CMY-185, the initial velocities at a concentration range of 3.7–59.4 µM were similar.
(§2) The steady-state kinetics were carried out on a UV-Visible spectrometer (UV-1280, Shimadzu, Japan) in PBS pH 7.2 at 25°C with a constant amount of enzyme and varying concentrations of the substrates. We tested nitrocefin, cephalothin, ceftazidime, and cefiderocol as the substrates and avibactam as the inhibitor. The steady-state kinetics parameters Km and kcat were determined with the Michaelis-Menten equation. For poorly hydrolyzed substrates, the Km value was assumed to be the competitive inhibition constant (Ki app) value according to previous studies ([17], [19]). Inhibition parameter values of Ki app, k2/K, k−2, and koff for avibactam were determined using a method as described previously ([33]). Cephalothin was used as the reporter substrate for competitive inhibition experiments, and its concentration was fixed at 100 µM. The enzyme concentration was 1–10 nM. Inverse steady-state initial velocities were plotted against the concentration of the competitive inhibitor agents, such as ceftazidime, cefiderocol, and avibactam. The data were analyzed by linear regression analysis of the Dixon plot, and Ki app (observed) was determined by dividing the y-intercept value by the slope of the line. It was then corrected to account for the affinity of cephalothin for each enzyme using the Equation (1):
(§3) (1) Ki app=Ki app (observed)/{1+[S]/Km (cephalothin)}
(§4) where [S] represents the concentration of the reporter substrate cephalothin, and Km (cephalothin) is the Km value of cephalothin for each enzyme.
(§5) The koff value was determined using a jump dilution assay. The enzyme and avibactam were mixed and preincubated at 25°C for 5 min. The concentration of avibactam depended on the enzyme and concentrations 10-fold higher from each Ki app (observed) value were adopted, which were determined based on the corrected competitive inhibition constants Ki app. Preincubated enzyme-avibactam mixture was then diluted 2,000-fold in the 100 µM cephalothin solution, and the hydrolysis of cephalothin was measured. Three independent measurements were performed for each enzyme and substrate or inhibitor combination. Curve fittings using linear or non-linear regression were performed with R 4.1.3 (R Core Team, 2022).

[2] = target: T2, CMY-2 variant A114E_N346Y (Klebsiella pneumoniae, UniProt Q48434, A134E/N366Y); test: as above; settings: for Ki: reporter substrate cephalothin 100 µM, Dixon plot, read-out: Ki app
T2 construct: all CMY-2 variant genes encoding the mature enzyme without a signal peptide were cloned into the protein expression plasmid vector pET-30b; made in house; host or cells: E. coli BL21 (DE3), pET-30b
Source text: as §1, §2, §3, §4, §5

V211S (CMY-42) [3] = target: T3, V211S (CMY-42) (Klebsiella pneumoniae, UniProt Q48434, V231S); test: as above
T3 construct: all CMY-2 variant genes encoding the mature enzyme without a signal peptide were cloned into the protein expression plasmid vector pET-30b; made in house; host or cells: E. coli BL21 (DE3), pET-30b
Source text: as §1, §2, §3, §4, §5

CMY-2 [4] = target: T4, CMY-2 (Klebsiella pneumoniae, UniProt Q48434); test: as above; settings: for Ki: reporter substrate cephalothin 100 µM, Dixon plot, read-out: Ki app
T4 construct: all CMY-2 variant genes encoding the mature enzyme without a signal peptide were cloned into the protein expression plasmid vector pET-30b; made in house; host or cells: E. coli BL21 (DE3), pET-30b
Source text: as §1, §2, §3, §4, §5

[5] = target: T5, CMY-2 variant Q120K_N346Y (Klebsiella pneumoniae, UniProt Q48434, N366Y/Q140K); test: as above
T5 construct: all CMY-2 variant genes encoding the mature enzyme without a signal peptide were cloned into the protein expression plasmid vector pET-30b; made in house; host or cells: E. coli BL21 (DE3), pET-30b
Source text: as §1, §2, §3, §4, §5

[6] = target: T6, CMY-2 variant V211S_N346Y (Klebsiella pneumoniae, UniProt Q48434, N366Y/V231S); test: as above
T6 construct: all CMY-2 variant genes encoding the mature enzyme without a signal peptide were cloned into the protein expression plasmid vector pET-30b; made in house; host or cells: E. coli BL21 (DE3), pET-30b
Source text: as §1, §2, §3, §4, §5

CMY-185 [7] = target: T7, CMY-185 (Klebsiella pneumoniae, UniProt Q48434, A134E/N366Y/Q140K/V231S); test: as above
T7 construct: all CMY-2 variant genes encoding the mature enzyme without a signal peptide were cloned into the protein expression plasmid vector pET-30b; made in house; host or cells: E. coli BL21 (DE3), pET-30b
Source text: as §1, §2, §3, §4, §5

V211S (CMY-42) [8] = target: T3, V211S (CMY-42); test: Steady-state hydrolysis kinetics; settings: for Km / kcat: PBS pH 7.2, 25°C
Source text: as §1
as §2, with “(1): […]” for “(1):”

[9] = target: T5, CMY-2 variant Q120K_N346Y; test: Steady-state hydrolysis kinetics; settings: for Km / kcat: PBS pH 7.2, 25°C
Source text: as §1
as §2, with “(1): […]” for “(1):”

[10] = target: T6, CMY-2 variant V211S_N346Y; test: Steady-state hydrolysis kinetics; settings: V211S_N346Y; for Km / kcat: PBS pH 7.2, 25°C
Source text: as §1
as §2, with “(1): […]” for “(1):”

CMY-185 [11] = target: T7, CMY-185; test: Steady-state hydrolysis kinetics; settings: for Km / kcat: PBS pH 7.2, 25°C
Source text: as §1
as §2, with “(1): […]” for “(1):”

CMY-2 variant N346Y [12] = target: T1, CMY-2 variant N346Y; test: Steady-state hydrolysis kinetics; settings: for Km / kcat: PBS pH 7.2, 25°C
Source text: as §1
as §2, with “The enzyme concentration was 1–10 nM.” left out, “(1): […]” for “(1):”

[13] = target: T2, CMY-2 variant A114E_N346Y; test: Steady-state hydrolysis kinetics; settings: for Km / kcat: PBS pH 7.2, 25°C
Source text: as §1
as §2, with “The enzyme concentration was 1–10 nM.” left out, “(1): […]” for “(1):”

CMY-2 [14] = target: T4, CMY-2; test: Steady-state hydrolysis kinetics
Source text: as §1
as §2, with “The enzyme concentration was 1–10 nM.” left out, “(1): […]” for “(1):”

[15] = system: CC(=O)OCC1=C(C(=O)O)N2C(=O)[C@@H](NC(=O)Cc3cccs3)[C@H]2SC1; test: Steady-state hydrolysis kinetics; settings: other: CMY-2, PBS pH 7.2, 25°C
Source text: as §1
as §2, with “The enzyme concentration was 1–10 nM.” left out, “(1): […]” for “(1):”

[16] = system: O=C(Cc1cccs1)N[C@@H]1C(=O)N2C(C(=O)O)=C(/C=C/c3ccc([N+](=O)[O-])cc3[N+](=O)[O-])CS[C@H]12; test: Steady-state hydrolysis kinetics; settings: other: CMY-2, PBS pH 7.2, 25°C
Source text: as §1
as §2, with “The enzyme concentration was 1–10 nM.” left out, “(1): […]” for “(1):”

[17] = reporter substrate cephalothin 100 µM, Dixon plot, read-out: Ki app
[18] = substrate 100 µM, 100–200 nM enzyme
[19] = substrate inhibition, Haldane equation

NC(=O)[C@@H]1CC[C@@H]2CN1C(=O)N2OS(=O)(=O)O [Avibactam, avibactam]
fold higher Ki app (CMY-2 variant N346Y [1]; N346Y compared to CMY-2 and V211S): 1,000 fold | k−2 (CMY-2 variant N346Y [1]; N346Y, decarbamoylation rate constant): 1e-05 ± 0.00016 s⁻¹ | koff (CMY-2 variant N346Y [1]; N346Y, jump dilution assay): 2.6e-06 s⁻¹ | Ki (CMY-2 variant N346Y [1]; N346Y): 41 ± 6 µM | k−2 ([2]; decarbamoylation rate constant): 0.00011 ± 0 s⁻¹ | koff ([2]; jump dilution assay): 9e-07 s⁻¹ | Ki [2]: 80 ± 9 µM | k−2 (V211S (CMY-42) [3]; decarbamoylation rate constant): 0.00015 ± 2e-05 s⁻¹ | koff (V211S (CMY-42) [3]; jump dilution assay): 6e-05 s⁻¹ | Ki (V211S (CMY-42) [3]; [17]): 0.034 µM | k−2 (CMY-2 [4]; decarbamoylation rate constant): 0.00012 ± 2e-05 s⁻¹ | koff (CMY-2 [4]; jump dilution assay): 7.3e-05 s⁻¹ | Ki (CMY-2 [4]): 0.063 µM | kinact/KI (CMY-2 [4]; second-order carbamoylation rate constant, read-out: k2/K): 28000 M⁻¹ s⁻¹ | fold higher Ki app ([5]; Q120K_N346Y compared to CMY-2 and V211S): 10,000 fold | fold higher Ki app ([5]; Q120K_N346Y compared to N346Y): 10 fold | k−2 ([5]; Q120K_N346Y, decarbamoylation rate constant): 0.002 ± 0.0001 s⁻¹ | koff ([5]; Q120K_N346Y, jump dilution assay): 4e-06 s⁻¹ | Ki ([5]; Q120K_N346Y, reporter substrate cephalothin 100 µM, Dixon plot, read-out: Ki app): 590 µM | k−2 ([6]; decarbamoylation rate constant): 0.00044 ± 0.00021 s⁻¹ | koff ([6]; jump dilution assay): 2.4e-06 s⁻¹ | Ki [6, 17]: 14 ± 4 µM | k−2 (CMY-185 [7]; CMY-185, decarbamoylation rate constant): 0.0007 ± 5e-05 s⁻¹ | koff (CMY-185 [7]; CMY-185, jump dilution assay): 4.8e-07 s⁻¹ | Ki (CMY-185 [7]; CMY-185, reporter substrate cephalothin 100 µM, Dixon plot, read-out: Ki app): 1300 µM | fold higher Ki app (CMY-185 [7]; CMY-185 compared to CMY-2 and V211S): 20,000 fold

CC(C)(O/N=C(\C(=O)N[C@@H]1C(=O)N2C(C(=O)[O-])=C(C[n+]3ccccc3)CS[C@H]12)c1csc(N)n1)C(=O)O [Ceftazidime, ceftazidime]
Ki (CMY-2 variant N346Y [1]; N346Y): 0.7 ± 0.2 µM | Ki [2]: 0.3 µM | Ki (CMY-2 [4]): 0.7 ± 0.1 µM | Km (V211S (CMY-42) [8]): 74 ± 10 µM | kcat (V211S (CMY-42) [8]): 1.5 ± 0.2 s⁻¹ | Km [9]: 5.3 ± 0.5 µM | kcat [9]: 0.077 ± 0.003 s⁻¹ | Km [10]: 37 ± 2 µM | kcat [10]: 0.3 ± 0.0 s⁻¹ | Km (CMY-185 [11]): 2.2 ± 0.3 µM | kcat (CMY-185 [11]): 0.1 ± 0.0 s⁻¹ | hydrolysis (CMY-2 variant N346Y [12]; [18]): no apparent hydrolysis | hydrolysis [13, 18]: no apparent hydrolysis | hydrolysis (CMY-2 [14]; [18]): no apparent hydrolysis

CC(=O)OCC1=C(C(=O)O)N2C(=O)[C@@H](NC(=O)Cc3cccs3)[C@H]2SC1 [Cephalothin, cephalothin]
Km (V211S (CMY-42) [8]): 7.5 ± 1.1 µM | kcat (V211S (CMY-42) [8]): 83 ± 7 s⁻¹ | Km [9]: 18 ± 3 µM | kcat [9]: 42 ± 5 s⁻¹ | Km [10]: 4.4 ± 0.3 µM | kcat [10]: 9.6 ± 0.2 s⁻¹ | Km (CMY-185 [11]): 19 ± 1 µM | kcat (CMY-185 [11]): 14 ± 1 s⁻¹ | Km (CMY-2 variant N346Y [12]): 3.9 ± 0.1 µM | kcat (CMY-2 variant N346Y [12]): 18 ± 7 s⁻¹ | Km [13]: 1.4 ± 0.1 µM | kcat [13]: 3.3 ± 0.1 s⁻¹

O=C(Cc1cccs1)N[C@@H]1C(=O)N2C(C(=O)O)=C(/C=C/c3ccc([N+](=O)[O-])cc3[N+](=O)[O-])CS[C@H]12 [Nitrocefin, nitrocefin]
Km (V211S (CMY-42) [8]): 29 ± 12 µM | kcat (V211S (CMY-42) [8]): 320 ± 102 s⁻¹ | Ki (V211S (CMY-42) [8]; [19]): 130 µM | Km [9]: 50 ± 40 µM | kcat [9]: 120 ± 90 s⁻¹ | Ki [9, 19]: 14 ± 12 µM | Km [10]: 35 ± 10 µM | kcat [10]: 85 ± 18 s⁻¹ | Ki [10, 19]: 100 µM | Km (CMY-185 [11]): 39 ± 24 µM | kcat (CMY-185 [11]): 17 ± 9 s⁻¹ | Ki (CMY-185 [11]; [19]): 18 ± 13 µM | Km (CMY-2 variant N346Y [12]): 25 ± 3 µM | kcat (CMY-2 variant N346Y [12]): 61 ± 5 s⁻¹ | Ki (CMY-2 variant N346Y [12]; [19]): 87 ± 25 µM | Km [13]: 16 ± 4 µM | kcat [13]: 57 ± 10 s⁻¹ | Ki [13, 19]: 68 ± 37 µM | Ki (CMY-2 [14]; [19]): 160 µM

CMY-2 (Klebsiella pneumoniae)
Km [15]: 4.1 ± 0.3 µM | kcat [15]: 54 ± 0.8 s⁻¹ | kcat/Km [15]: 1.3e+07 ± 1e+06 M⁻¹ s⁻¹ | Km [16]: 17 ± 5 µM | kcat [16]: 240 ± 50 s⁻¹ | kcat/Km [16]: 1.4e+07 ± 5e+06 M⁻¹ s⁻¹
